# Key:
# hα2A receptor = target: T1, hα2A receptor (Homo sapiens, UniProt P08913); assay: Radioligand binding experiment for α2A-adrenoceptor ([3H]raulwolscine, CHO cell membranes); conditions: [3H]raulwolscine binding; for IC50: read-out: h-α2A pIC50 (converted)
# T1 construct: expressed in transfected cells; host or cells: CHO cells, stably transfected; membrane preparation
# T1 sequence (P08913 1-465): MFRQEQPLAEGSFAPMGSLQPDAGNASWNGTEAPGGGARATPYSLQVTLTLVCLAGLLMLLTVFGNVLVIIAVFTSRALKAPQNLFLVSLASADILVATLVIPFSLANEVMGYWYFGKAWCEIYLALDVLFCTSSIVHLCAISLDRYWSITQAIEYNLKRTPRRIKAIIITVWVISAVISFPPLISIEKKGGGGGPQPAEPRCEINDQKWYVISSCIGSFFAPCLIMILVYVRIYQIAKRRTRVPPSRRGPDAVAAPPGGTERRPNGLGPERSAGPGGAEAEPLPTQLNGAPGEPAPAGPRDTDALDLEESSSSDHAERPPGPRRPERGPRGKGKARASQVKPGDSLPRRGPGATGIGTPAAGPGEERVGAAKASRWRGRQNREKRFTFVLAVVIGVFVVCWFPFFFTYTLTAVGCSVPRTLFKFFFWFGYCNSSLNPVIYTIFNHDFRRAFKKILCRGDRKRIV
# hα2C receptor = target: T2, hα2C receptor (Homo sapiens, UniProt P18825); assay: Radioligand binding experiment for α2C-adrenoceptor ([3H]raulwolscine, CHO cell membranes); conditions: [3H]raulwolscine binding; for IC50: read-out: h-α2C pIC50 (converted)
# T2 construct: expressed in transfected cells; host or cells: CHO cells, stably transfected; membrane preparation
# T2 sequence (P18825 1-462): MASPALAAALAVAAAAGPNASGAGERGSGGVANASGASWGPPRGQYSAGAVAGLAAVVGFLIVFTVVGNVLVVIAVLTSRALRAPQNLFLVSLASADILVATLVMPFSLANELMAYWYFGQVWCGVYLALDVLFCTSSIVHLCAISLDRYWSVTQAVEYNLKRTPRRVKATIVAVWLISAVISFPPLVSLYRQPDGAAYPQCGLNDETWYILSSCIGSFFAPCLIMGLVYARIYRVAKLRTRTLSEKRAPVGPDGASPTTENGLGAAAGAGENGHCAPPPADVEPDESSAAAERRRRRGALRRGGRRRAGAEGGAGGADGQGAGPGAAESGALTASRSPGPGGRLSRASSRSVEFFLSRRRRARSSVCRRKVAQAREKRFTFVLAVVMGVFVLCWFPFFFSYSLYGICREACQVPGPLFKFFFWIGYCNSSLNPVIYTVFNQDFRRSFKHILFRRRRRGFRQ
# 5HT-Transporter = target: T3, 5HT-Transporter (Homo sapiens, UniProt P31645); assay: Binding experiment for the 5HT-transporter ([3H]paroxetine, human platelet membranes); conditions: [3H]paroxetine 0.5 nM; for IC50: read-out: h-5HTT pIC50 (converted)
# T3 construct: Human platelet membranes (Oceanix Biosciences Corporation, Hanover, Md., USA) were thawed; tissue Oceanix Biosciences Corporation, Hanover, Md., USA; host or cells: human platelet membranes
# T3 sequence (P31645 whole entry): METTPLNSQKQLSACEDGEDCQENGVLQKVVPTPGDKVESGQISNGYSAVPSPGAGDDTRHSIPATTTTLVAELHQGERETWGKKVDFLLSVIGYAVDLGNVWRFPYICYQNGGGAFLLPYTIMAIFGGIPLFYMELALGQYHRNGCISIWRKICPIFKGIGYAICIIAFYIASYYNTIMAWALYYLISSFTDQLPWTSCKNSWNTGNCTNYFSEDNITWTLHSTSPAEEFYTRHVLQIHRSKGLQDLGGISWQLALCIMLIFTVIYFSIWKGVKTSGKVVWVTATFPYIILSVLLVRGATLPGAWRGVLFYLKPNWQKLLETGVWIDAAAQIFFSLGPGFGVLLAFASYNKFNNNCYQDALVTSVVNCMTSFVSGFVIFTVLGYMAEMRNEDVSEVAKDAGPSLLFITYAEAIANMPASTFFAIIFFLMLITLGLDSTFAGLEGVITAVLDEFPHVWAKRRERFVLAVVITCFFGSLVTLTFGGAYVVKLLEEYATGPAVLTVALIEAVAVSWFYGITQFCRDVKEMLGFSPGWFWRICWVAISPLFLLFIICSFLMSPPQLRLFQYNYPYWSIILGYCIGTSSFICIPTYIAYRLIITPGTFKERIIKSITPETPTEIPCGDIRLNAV
# How it was run: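 Filter-bound radioactivity from human platelet membranes incubated with [3H]paroxetine and test compound (buffer Tris-HCl 50 mM, 120 mM NaCl, 5 mM KCl) was counted.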
IC50 (hα2A receptor),IC50 (hα2C receptor),IC50 (5HT-Transporter),h-α2A pIC50 (hα2A receptor),h-α2C pIC50 (hα2C receptor),h-5HTT pIC50 (5HT-Transporter),Compound
12.6 nM,2.51 nM,200 nM,,,,C/C(=C\c1ccccc1)CN1CCC(Nc2nccn(Cc3ccc(NCCN(C)C)cc3)c2=O)CC1 [1-104]
39.8 nM,5.01 nM,631 nM,,,,C/C(=C\c1ccccc1)CN1CCC(Nc2nccn(-c3ccc(CNCCN(C)C)cc3)c2=O)CC1 [1-105]
,,,7.9,8.8,6.1,C/C(=C\c1ccccc1)CN1CCC(Nc2nccn(-c3cccc(CNCCN(C)C)c3)c2=O)CC1 [1-106]
31.6 nM,1.58 nM,2000 nM,,,,C/C(=C\c1ccccc1)CN1CCC(Nc2nccn(CC(=O)NCCCN(C)C)c2=O)CC1 [1-107]
50.1 nM,1.58 nM,6310 nM,,,,C/C(=C\c1ccccc1)CN1CCC(Nc2nccn(CC(=O)N(C)CCN(C)C)c2=O)CC1 [1-108]
,,,8.2,8.6,6.5,C/C(=C\c1ccccc1)CN1CCC(Nc2nccn(-c3cccc(CN(C)CCN(C)C)c3)c2=O)CC1 [1-109]
50.1 nM,0.794 nM,3980 nM,,,,C/C(=C\c1ccccc1)CN1CCC(Nc2nccn(CC(=O)N(C)CCN(C)Cc3ccccc3)c2=O)CC1 [1-111]
39.8 nM,3.16 nM,200 nM,,,,C/C(=C\c1ccccc1)CN1CCC(Nc2nccn(-c3ccc(C(=O)N(CCN(C)C)Cc4ccccc4)cc3)c2=O)CC1 [1-112]
126 nM,3.98 nM,7940 nM,,,,C/C(=C\c1ccccc1)CN1CCC(Nc2nccn(CC(=O)N(CCN(C)C)Cc3ccc(F)cc3)c2=O)CC1 [1-113]
200 nM,12.6 nM,3980 nM,,,,CC(=O)NCCNC(=O)Cn1ccnc(NC2CCN(C/C(C)=C/c3ccccc3)CC2)c1=O [1-114]
251 nM,79.4 nM,794 nM,,,,CCCNC(=O)NCc1ccc(Cn2ccnc(NC3CCN(C/C(C)=C/c4ccccc4)CC3)c2=O)cc1 [1-115]
200 nM,126 nM,316 nM,,,,C/C(=C\c1ccccc1)CN1CCC(Nc2nccn(Cc3ccc(CNC(=O)NCCS)cc3)c2=O)CC1 [1-116]
,,,6.7,8.3,6.3,CCN(CC)C(=O)NCc1ccc(-n2ccnc(NC3CCN(C/C(C)=C/c4ccccc4)CC3)c2=O)cc1 [1-117]
398 nM,79.4 nM,501 nM,,,,C/C(=C\c1ccccc1)CN1CCC(Nc2nccn(Cc3ccc(CNC(=O)NC4CCCCC4)cc3)c2=O)CC1 [1-118]
158 nM,5.01 nM,158 nM,,,,C/C(=C\c1ccccc1)CN1CCC(Nc2nccn(CCCNC(=O)Nc3ccccc3)c2=O)CC1 [1-119]
200 nM,25.1 nM,126 nM,,,,C/C(=C\c1ccccc1)CN1CCC(Nc2nccn(-c3ccc(NC(=O)Nc4ccc(F)cc4)cc3)c2=O)CC1 [1-120]
158 nM,6.31 nM,794 nM,,,,C/C(=C\c1ccccc1)CN1CCC(Nc2nccn(CCCN(C)C(=O)Nc3ccccc3)c2=O)CC1 [1-121]
100 nM,7.94 nM,200 nM,,,,C/C(=C\c1ccccc1)CN1CCC(Nc2nccn(CCCN(C(=O)Nc3ccccc3)c3ccccc3)c2=O)CC1 [1-122]
158 nM,12.6 nM,631 nM,,,,C/C(=C\c1ccccc1)CN1CCC(Nc2nccn(CCCN(Cc3ccccc3)C(=O)Nc3ccccc3)c2=O)CC1 [1-123]
251 nM,63.1 nM,501 nM,,,,C/C(=C\c1ccccc1)CN1CCC(Nc2nccn(Cc3ccc(CNC(=O)NCc4ccccc4)cc3)c2=O)CC1 [1-124]

IC50 (hα2A receptor),IC50 (hα2C receptor),IC50 (5HT-Transporter),h-α2A pIC50 (hα2A receptor),h-α2C pIC50 (hα2C receptor),h-5HTT pIC50 (5HT-Transporter),Compound
158 nM,63.1 nM,501 nM,,,,C/C(=C\c1ccccc1)CN1CCC(Nc2nccn(Cc3ccc(CNC(=O)NCCc4ccccc4)cc3)c2=O)CC1 [1-125]
251 nM,39.8 nM,501 nM,,,,COc1cc(CNC(=O)NCc2ccc(Cn3ccnc(NC4CCN(C/C(C)=C/c5ccccc5)CC4)c3=O)cc2)cc(OC)c1 [1-126]
,,,7.3,8.0,5.5,CCOC(=O)N1CCC(NCc2cccc(-n3ccnc(NC4CCN(C/C(C)=C/c5ccccc5)CC4)c3=O)c2)CC1 [1-127]
,,,7.0,7.9,5.9,CCOC(=O)N1CCC(NCc2ccc(-n3ccnc(NC4CCN(C/C(C)=C/c5ccccc5)CC4)c3=O)cc2)CC1 [1-128]
63.1 nM,25.1 nM,501 nM,,,,C/C(=C\c1ccccc1)CN1CCC(Nc2nccn(-c3ccc(C(=O)NC4CCN(Cc5ccccc5)CC4)cc3)c2=O)CC1 [1-129]
,,,8.2,8.8,6.7,C/C(=C\c1ccccc1)CN1CCC(Nc2nccn(-c3cccc(CNCCN4CCCC4)c3)c2=O)CC1 [1-130]
25.1 nM,3.16 nM,158 nM,,,,C/C(=C\c1ccccc1)CN1CCC(Nc2nccn(-c3ccc(CNCCN4CCCC4)cc3)c2=O)CC1 [1-131]
316 nM,12.6 nM,2510 nM,,,,C/C(=C\c1ccccc1)CN1CCC(Nc2nccn(CC(=O)NCCCN3CCCC3=O)c2=O)CC1 [1-132]
,,,7.5,8.7,5.6,C/C(=C\c1ccccc1)CN1CCC(Nc2nccn(-c3cccc(CNCCCN4CCCC4=O)c3)c2=O)CC1 [1-133]
12.6 nM,1.58 nM,501 nM,,,,C/C(=C\c1ccccc1)CN1CCC(Nc2nccn(CC(=O)N(CCN3CCCC3)CC3CCCCC3)c2=O)CC1 [1-134]
12.6 nM,0.794 nM,794 nM,,,,C/C(=C\c1ccccc1)CN1CCC(Nc2nccn(CC(=O)N(CCN3CCCC3)Cc3ccccc3)c2=O)CC1 [1-135]
10 nM,0.316 nM,631 nM,,,,C/C(=C\c1ccccc1)CN1CCC(Nc2nccn(CC(=O)N(CCN3CCCC3)Cc3ccc(F)cc3)c2=O)CC1 [1-136]
12.6 nM,0.794 nM,1000 nM,,,,C/C(=C\c1ccccc1)CN1CCC(Nc2nccn(CC(=O)N(CCCN3CCCC3)Cc3ccc(F)cc3)c2=O)CC1 [1-137]
7.94 nM,0.794 nM,1260 nM,,,,C/C(=C\c1ccccc1)CN1CCC(Nc2nccn(CC(=O)N(CCN3CCCC3C)Cc3ccc(F)cc3)c2=O)CC1 (stereo not drawn) [1-138]
200 nM,3.16 nM,2510 nM,,,,C/C(=C\c1ccccc1)CN1CCC(Nc2nccn(CC(=O)N(CCCN3CCCC3=O)Cc3ccc(F)cc3)c2=O)CC1 [1-139]
39.8 nM,3.98 nM,200 nM,,,,C/C(=C\c1ccccc1)CN1CCC(Nc2nccn(-c3ccc(C(=O)NCCN4CCCCC4)cc3)c2=O)CC1 [1-140]
100 nM,6.31 nM,1580 nM,,,,C/C(=C\c1ccccc1)CN1CCC(Nc2nccn(CC(=O)NCc3cccnc3)c2=O)CC1 [1-141]
158 nM,3.16 nM,1000 nM,,,,CCN(Cc1ccncc1)C(=O)Cn1ccnc(NC2CCN(C/C(C)=C/c3ccccc3)CC2)c1=O [1-142]
79.4 nM,3.16 nM,2000 nM,,,,C/C(=C\c1ccccc1)CN1CCC(Nc2nccn(CC(=O)N(CCCn3ccnc3)Cc3ccc(F)cc3)c2=O)CC1 [1-143]
